In patent publication US20190151341A1, “APPLICATION OF TENVERMECTIN FOR PREVENTING AND TREATING PARASITE INFECTION” (ZHEJIANG HISUN PHARMACEUTICAL CO., LTD., priority 2016, published 2019):

Test system: zebrafish
Assay: Toxicity to zebrafish, semi-static method, 96 hours
Protocol: Test agents: avermectin, milbemycin, ivermectin, tenvermectin A and tenvermectin B were all from Zhejiang Hisun Pharmaceutical Co., Ltd. The samples were formulated into 50 mg/ml mother liquors with DMF.
Test fish and water: zebrafish (Brachydanio rerio) was purchased from Zhejiang Academy of Agricultural Sciences, with the same size, average body length of 2-3 cm and average body weight of 0.3 g. The zebrafish was domesticated for 7 days indoors before the test. […] Feeding was stopped 1 day before the test and the fish were not fed during the test. The test water was tap water with residual chlorine removed by exposure to the sun for more than 24 hours, and the pH thereof was 6.8.
Test methods: semi-static method. Three level differences were provided for each sample: 0.5 ppm, 1.0 ppm and 1.5 ppm, and three parallel groups were provided for each level difference, 10 zebrafish were raised for each group, and blank controls (one group without agents and one group with only solvent) were provided. The corresponding volume of mother liquor was taken according to the concentration as required for each sample, and the volume of each sample was adjusted to 150 μl with DMF, and then each sample was added to the test group (containing 1.6 L of water). The room temperature was controlled at 22±2° C. for 96 hours, and the water was changed every 24 hours and the samples were re-added. The fish mortality rate was recorded for the first 8 hours and at 24, 48, 72 and 96 hours, and the dead fish were removed in time.

Row | Compound | Survival condition (survival rates/%) (0.5 ppm, 8 h) [%] | Survival condition (survival rates/%) (0.5 ppm, 24 h) [%] | Survival condition (survival rates/%) (0.5 ppm, 48 h) [%] | Survival condition (survival rates/%) (0.5 ppm, 72 h) [%] | Survival condition (survival rates/%) (0.5 ppm, 96 h) [%] | Survival condition (survival rates/%) (1.0 ppm, 8 h) [%] | Survival condition (survival rates/%) (1.0 ppm, 24 h) [%] | Survival condition (survival rates/%) (1.0 ppm, 48 h) [%] | Survival condition (survival rates/%) (1.0 ppm, 72 h) [%] | Survival condition (survival rates/%) (1.0 ppm, 96 h) [%] | Survival condition (survival rates/%) (1.0 ppm, 96 h, listed as tenvermectin A) | Survival condition (survival rates/%) (1.5 ppm, 8 h) [%] | Survival condition (survival rates/%) (1.5 ppm, 24 h) [%] | Survival condition (survival rates/%) (1.5 ppm, 48 h) [%] | Survival condition (survival rates/%) (1.5 ppm, 72 h) [%] | Survival condition (survival rates/%) (1.5 ppm, 96 h) [%] | 96-hour LC50 on zebrafish (96 hours, semi-static) [ppm] | toxicity to zebrafish, in words (in vivo)
1 | COC1CC(OC2C(C)OC(OC3C(C)=CCC4CC(CC5(CCC(C)C(C)O5)O4)OC(=O)C4C=C(C)C(O)C5OCC(=CC=CC3C)C45O)CC2OC)OC(C)C1O (centres unmarked) [Tenvermectin A, tenvermectin A] | 100 | 100 | 100 | 100 | 100 | 100 | 100 | 100 | 100 | 100 | greater than 50% | 100 | 100 | 100 | 100 | 100 | > 1 | –
2 | CC[C@H]1O[C@]2(CC[C@@H]1C)C[C@@H]1C[C@@H](C/C=C(\C)[C@@H](O[C@H]3C[C@H](OC)[C@@H](O[C@H]4C[C@H](OC)[C@@H](O)[C@H](C)O4)[C@H](C)O3)[C@@H](C)/C=C/C=C3\CO[C@@H]4[C@H](O)C(C)=C[C@@H](C(=O)O1)[C@]34O)O2 [Tenvermectin B, tenvermectin B] | 100 | 70 | 50 | 0 | – | 53 | 0 | – | – | – | – | 10 | 0 | – | – | – | – | did not reach the level of middle toxic
